The subject of test [1] is A-431. Description: Cell proliferation GI50, A-431 cells (Table 6). Type of test: cell-based.
Test [2] addresses T1, EGFR (C797S L858R) (Homo sapiens, UniProt P00533, C797S/L858R).
T1 construct: purchased signalchem
Description: Inhibition of EGFR (C797S L858R) biochemical enzymatic activity (HTRF). The following applies: EGFR L858-C797S, 1 mM ATP, 1 h, room temperature, read-out: IC50 (nM) @L858-C797S. Put shortly: (§1)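 Compounds at varying concentrations were tested against each EGFR form using 1 mM ATP and 1 μM TK Substrate-biotin. Reactions ran 1 h at room temperature in Mg2+/Mn2+ buffer with CHAPS, DTT and 0.5% DMSO. Time-resolved fluorescence gave IC50 by four-parameter fit.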
(Time-resolved FRET reads energy transfer from a long-lived donor to a nearby acceptor.)

Test [3] deals with T2, EGFR Exon19Del (Homo sapiens, UniProt P00533, DEL746-750).
T2 construct: purchased Carna Bio
Description: Inhibition of EGFR Exon19Del biochemical enzymatic activity (HTRF). The following applies: EGFR Del19, 1 mM ATP, 1 h, room temperature, read-out: IC50 @Del19. Put shortly:
as §1

Test [4] has as its system PC-9. Description: Cell proliferation assay, PC-9 cells (CellTiter-Glo, 72 hours). The following applies: PC9 cells, CellTiter-Glo, read-out: PC9 GI50. It is filed as cell-based. The method, boiled down:
(§2)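 GI50 is the concentration giving 50% proliferation inhibition. Growth for this was normalised to a baseline viability reading taken when compound was added, and to DMSO wells. PC-9 (500 cells/well) and mutant-EGFR Ba/F3 (5000 cells/well) are treated after overnight seeding in RPMI1640-based medium.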

Test [5] deals with T3, EGFR wild type (Homo sapiens, UniProt P00533).
T3 construct: purchased Carna Bio
Description: Inhibition of EGFR wild type biochemical enzymatic activity (HTRF). The following applies: EGFR WT, 1 mM ATP, 1 h, room temperature, read-out: IC50 (nM) @WT. Put shortly:
as §1

Test [6] has as its target T4, EGFR Exon19Del/T790M (Homo sapiens, UniProt P00533, DEL746-750/T790M).
T4 construct: purchased Carna Bio
Description: Inhibition of EGFR Exon19Del/T790M biochemical enzymatic activity (HTRF). The following applies: EGFR Del19-T790M, 1 mM ATP, 1 h, room temperature, read-out: IC50 (nM) @Del19-T790M. Put shortly:
as §1

Test [7] deals with T5, EGFR (d746-750 C797S) (Homo sapiens, UniProt P00533, C797S/DEL746-750).
T5 construct: purchased signalchem
Description: Inhibition of EGFR (d746-750 C797S) biochemical enzymatic activity (HTRF). The following applies: EGFR Del19-C797S, 1 mM ATP, 1 h, room temperature, read-out: IC50 (nM) @Del19-C797S. The method, boiled down:
as §1

For test [8], the system named is Ba/F3 cells expressing EGFR mutations. Description: Cell proliferation assay, Ba/F3 cells expressing EGFR mutations (CellTiter-Glo, 72 hours). It is filed as cell-based. The following applies: CellTiter-Glo. Put shortly:
as §2
(In general: Cellular ATP, detected with luciferase, serves as a proxy for viable cell number.)

For test [9], the target named is T6, EGFR L858R/T790M (Homo sapiens, UniProt P00533, L858R/T790M).
T6 construct: purchased Carna Bio
Description: Inhibition of EGFR L858R/T790M biochemical enzymatic activity (HTRF). The following applies: EGFR L858R-T790M, 1 mM ATP, 1 h, room temperature, read-out: IC50 (nM) @L858R-T790M. Put shortly:
as §1

In test [10] the target is T7, EGFR L858R (Homo sapiens, UniProt P00533, L858R).
T7 construct: purchased Carna Bio
Description: Inhibition of EGFR L858R biochemical enzymatic activity (HTRF). The following applies: 1 mM ATP, 1 h, room temperature, read-out: IC50 (nM) @L858R. The method, boiled down:
as §1

The target of test [11] is T8, EGFR[T790M/C797S/L858R] (Homo sapiens, UniProt P00533, C797S/L858R/T790M).
T8 construct: purchased Carna Bio
Description: Inhibition of EGFR[T790M/C797S/L858R] biochemical enzymatic activity (HTRF). The following applies: EGFR T790M-C797S-L858R, 1 mM ATP, 1 h, room temperature, read-out: IC50 (nM) @T790M- C797S - L858R. Put shortly: as §1

Test [12] deals with T9, EGFR[T790M/C797S/d746-750] (Homo sapiens, UniProt P00533, C797S/DEL746-750/T790M).
T9 construct: purchased Carna Bio
Description: Inhibition of EGFR[T790M/C797S/d746-750] biochemical enzymatic activity (HTRF). The following applies: EGFR T790M-C797S-Del19, 1 mM ATP, 1 h, room temperature, read-out: IC50 (nM) @T790M - C797S - Del19. The method, boiled down:
as §1

Where [13] appears, read: Homo sapiens, A-431, A-431 cells.
Setting [14] is: Mus musculus, BaF3, 72 h, BaF3 cells, EGFR DEL19-C797S, read-out: DEL19-C797S/BaF3 GI50.
The mark [15] stands for this setting: Mus musculus, BaF3, 72 h, BaF3 cells, EGFR DEL19-T790-C797S, read-out: DEL19-T790-C797S/BaF3 GI50.
[16] abbreviates: Mus musculus, BaF3, 72 h, BaF3 cells, EGFR L858R, read-out: L858R/BaF3 GI50.
The mark [17] stands for this setting: Mus musculus, BaF3, 72 h, BaF3 cells, EGFR L858R-C797S, read-out: L858R-C797S/BaF3 GI50.
Setting [18] is: Mus musculus, BaF3, 72 h, BaF3 cells, EGFR L858R-T790-C797S, read-out: L858R-T790-C797S/BaF3 GI50.
Where [19] appears, read: Mus musculus, BaF3, 72 h, BaF3 cells, EGFR L858R-T790M, read-out: L858R-T790M/BaF3 GI50.
Where [20] appears, read: Mus musculus, BaF3, 72 h, EGFR DEL19-T790M, read-out: DEL19-T790M GI50.
Where [21] appears, read: BaF3 cells, EGFR DEL19-C797S, read-out: DEL19-C797S/BaF3 GI50.
Setting [22] is: BaF3 cells, EGFR DEL19-T790-C797S, read-out: DEL19-T790-C797S/BaF3 GI50.
Setting [23] is: BaF3 cells, EGFR L858R, read-out: L858R/BaF3 GI50.
Where [24] appears, read: BaF3 cells, EGFR L858R-C797S, read-out: L858R-C797S/BaF3 GI50.
Where [25] appears, read: BaF3 cells, EGFR L858R-T790-C797S, read-out: L858R-T790-C797S/BaF3 GI50.
Where [26] appears, read: BaF3 cells, EGFR L858R-T790M, read-out: L858R-T790M/BaF3 GI50.
The mark [27] stands for this setting: EGFR DEL19-T790M, read-out: DEL19-T790M GI50.

SMILES strings stand for the structures. Like-named read-outs stand apart in the source and are kept apart here. Some results are limits rather than exact numbers.

The record followed here is patent US20260365670A1, “EGFR INHIBITORS AND USES THEREOF” (DIZAL (JIANGSU) PHARMACEUTICAL CO., LTD., priority 2022, published 2026).

T2 sequence (P00533 with tags, fused parts or gaps DEL746-750 limits assumed): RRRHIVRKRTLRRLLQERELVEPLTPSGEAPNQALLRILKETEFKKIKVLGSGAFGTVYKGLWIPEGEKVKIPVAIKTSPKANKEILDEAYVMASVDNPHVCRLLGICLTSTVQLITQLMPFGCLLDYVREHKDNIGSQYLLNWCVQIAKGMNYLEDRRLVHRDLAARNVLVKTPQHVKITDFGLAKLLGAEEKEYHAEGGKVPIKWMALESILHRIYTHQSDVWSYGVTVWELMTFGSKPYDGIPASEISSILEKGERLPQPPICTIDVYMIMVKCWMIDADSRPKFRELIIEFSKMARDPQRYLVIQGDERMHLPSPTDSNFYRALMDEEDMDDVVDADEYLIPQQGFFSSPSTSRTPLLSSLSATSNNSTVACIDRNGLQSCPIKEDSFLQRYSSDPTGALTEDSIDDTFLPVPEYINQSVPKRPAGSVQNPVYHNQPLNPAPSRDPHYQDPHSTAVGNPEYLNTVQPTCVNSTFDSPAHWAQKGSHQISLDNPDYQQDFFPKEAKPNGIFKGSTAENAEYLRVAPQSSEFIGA
T7 sequence (P00533 25-1210 L858R): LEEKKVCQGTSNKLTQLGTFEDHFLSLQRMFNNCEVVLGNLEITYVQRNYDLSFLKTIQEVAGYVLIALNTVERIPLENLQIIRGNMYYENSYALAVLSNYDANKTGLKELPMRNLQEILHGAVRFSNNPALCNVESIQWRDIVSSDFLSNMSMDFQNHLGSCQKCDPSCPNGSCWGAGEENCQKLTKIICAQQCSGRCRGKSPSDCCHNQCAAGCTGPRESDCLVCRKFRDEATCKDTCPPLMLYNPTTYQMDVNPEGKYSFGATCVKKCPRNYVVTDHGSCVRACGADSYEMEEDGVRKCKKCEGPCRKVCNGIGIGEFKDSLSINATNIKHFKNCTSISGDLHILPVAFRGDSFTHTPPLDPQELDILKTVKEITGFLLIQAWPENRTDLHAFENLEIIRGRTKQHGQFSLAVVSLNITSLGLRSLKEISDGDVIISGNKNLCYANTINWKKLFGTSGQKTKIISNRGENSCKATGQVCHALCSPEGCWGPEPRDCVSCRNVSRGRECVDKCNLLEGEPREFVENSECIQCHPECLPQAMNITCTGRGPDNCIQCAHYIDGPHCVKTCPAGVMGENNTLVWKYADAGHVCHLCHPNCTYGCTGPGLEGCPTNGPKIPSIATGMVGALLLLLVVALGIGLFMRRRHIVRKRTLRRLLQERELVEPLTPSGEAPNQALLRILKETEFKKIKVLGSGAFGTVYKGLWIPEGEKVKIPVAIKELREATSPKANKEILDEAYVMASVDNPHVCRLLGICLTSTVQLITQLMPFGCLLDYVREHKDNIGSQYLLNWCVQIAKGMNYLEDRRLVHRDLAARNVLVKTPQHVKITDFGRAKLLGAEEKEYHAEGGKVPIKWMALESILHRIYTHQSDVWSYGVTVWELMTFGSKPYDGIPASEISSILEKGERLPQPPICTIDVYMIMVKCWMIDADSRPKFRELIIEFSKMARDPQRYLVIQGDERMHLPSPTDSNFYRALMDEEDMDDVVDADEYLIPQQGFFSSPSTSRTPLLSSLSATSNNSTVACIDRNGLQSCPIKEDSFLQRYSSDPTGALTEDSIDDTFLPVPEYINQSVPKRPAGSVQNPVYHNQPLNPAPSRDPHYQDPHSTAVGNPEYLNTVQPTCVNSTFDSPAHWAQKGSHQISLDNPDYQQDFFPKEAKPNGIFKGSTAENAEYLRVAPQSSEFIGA
T3 sequence (P00533 25-1210): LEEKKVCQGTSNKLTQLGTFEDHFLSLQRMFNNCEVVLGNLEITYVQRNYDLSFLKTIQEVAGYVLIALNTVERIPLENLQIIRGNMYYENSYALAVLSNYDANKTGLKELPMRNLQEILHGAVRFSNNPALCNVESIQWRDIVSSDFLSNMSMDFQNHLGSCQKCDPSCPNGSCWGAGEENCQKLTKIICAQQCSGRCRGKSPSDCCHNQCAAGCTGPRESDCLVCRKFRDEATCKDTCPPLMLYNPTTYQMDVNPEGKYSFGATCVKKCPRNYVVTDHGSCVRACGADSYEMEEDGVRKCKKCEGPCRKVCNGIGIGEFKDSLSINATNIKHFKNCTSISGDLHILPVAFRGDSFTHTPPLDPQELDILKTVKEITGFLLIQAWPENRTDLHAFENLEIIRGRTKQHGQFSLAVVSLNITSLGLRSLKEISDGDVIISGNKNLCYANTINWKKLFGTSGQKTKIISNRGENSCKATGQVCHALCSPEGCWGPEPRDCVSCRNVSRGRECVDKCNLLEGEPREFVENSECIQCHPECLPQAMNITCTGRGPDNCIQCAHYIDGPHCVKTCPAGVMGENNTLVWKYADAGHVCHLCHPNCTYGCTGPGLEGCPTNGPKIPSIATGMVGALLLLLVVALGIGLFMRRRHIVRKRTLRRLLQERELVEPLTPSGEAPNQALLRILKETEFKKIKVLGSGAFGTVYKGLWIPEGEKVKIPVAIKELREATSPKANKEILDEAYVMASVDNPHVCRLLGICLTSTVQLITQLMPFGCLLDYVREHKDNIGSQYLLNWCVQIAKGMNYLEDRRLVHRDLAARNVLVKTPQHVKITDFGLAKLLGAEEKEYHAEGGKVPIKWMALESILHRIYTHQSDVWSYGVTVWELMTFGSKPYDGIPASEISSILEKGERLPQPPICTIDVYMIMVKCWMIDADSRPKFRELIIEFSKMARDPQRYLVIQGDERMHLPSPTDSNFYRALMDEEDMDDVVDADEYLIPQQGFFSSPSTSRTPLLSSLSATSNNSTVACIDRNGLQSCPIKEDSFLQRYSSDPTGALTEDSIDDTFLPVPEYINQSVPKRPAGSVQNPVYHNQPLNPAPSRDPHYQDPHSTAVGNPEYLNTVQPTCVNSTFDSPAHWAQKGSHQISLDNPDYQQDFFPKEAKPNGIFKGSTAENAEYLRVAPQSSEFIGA
T9 sequence (P00533 with tags, fused parts or gaps DEL746-750/T790M/C797S limits assumed): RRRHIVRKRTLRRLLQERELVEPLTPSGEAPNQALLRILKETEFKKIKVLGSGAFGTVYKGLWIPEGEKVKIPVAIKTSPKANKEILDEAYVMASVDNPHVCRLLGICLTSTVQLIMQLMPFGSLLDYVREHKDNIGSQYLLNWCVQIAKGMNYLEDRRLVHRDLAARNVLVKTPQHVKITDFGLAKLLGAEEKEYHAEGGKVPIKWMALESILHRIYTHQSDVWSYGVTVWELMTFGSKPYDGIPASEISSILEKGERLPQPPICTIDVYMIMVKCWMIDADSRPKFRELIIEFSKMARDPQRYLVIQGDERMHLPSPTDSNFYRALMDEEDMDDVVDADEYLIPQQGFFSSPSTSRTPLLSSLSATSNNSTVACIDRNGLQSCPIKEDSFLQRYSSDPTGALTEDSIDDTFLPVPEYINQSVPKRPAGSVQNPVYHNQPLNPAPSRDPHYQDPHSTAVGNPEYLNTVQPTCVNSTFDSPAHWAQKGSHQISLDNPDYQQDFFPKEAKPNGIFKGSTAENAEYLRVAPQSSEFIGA
T1 sequence (P00533 25-1210 C797S/L858R): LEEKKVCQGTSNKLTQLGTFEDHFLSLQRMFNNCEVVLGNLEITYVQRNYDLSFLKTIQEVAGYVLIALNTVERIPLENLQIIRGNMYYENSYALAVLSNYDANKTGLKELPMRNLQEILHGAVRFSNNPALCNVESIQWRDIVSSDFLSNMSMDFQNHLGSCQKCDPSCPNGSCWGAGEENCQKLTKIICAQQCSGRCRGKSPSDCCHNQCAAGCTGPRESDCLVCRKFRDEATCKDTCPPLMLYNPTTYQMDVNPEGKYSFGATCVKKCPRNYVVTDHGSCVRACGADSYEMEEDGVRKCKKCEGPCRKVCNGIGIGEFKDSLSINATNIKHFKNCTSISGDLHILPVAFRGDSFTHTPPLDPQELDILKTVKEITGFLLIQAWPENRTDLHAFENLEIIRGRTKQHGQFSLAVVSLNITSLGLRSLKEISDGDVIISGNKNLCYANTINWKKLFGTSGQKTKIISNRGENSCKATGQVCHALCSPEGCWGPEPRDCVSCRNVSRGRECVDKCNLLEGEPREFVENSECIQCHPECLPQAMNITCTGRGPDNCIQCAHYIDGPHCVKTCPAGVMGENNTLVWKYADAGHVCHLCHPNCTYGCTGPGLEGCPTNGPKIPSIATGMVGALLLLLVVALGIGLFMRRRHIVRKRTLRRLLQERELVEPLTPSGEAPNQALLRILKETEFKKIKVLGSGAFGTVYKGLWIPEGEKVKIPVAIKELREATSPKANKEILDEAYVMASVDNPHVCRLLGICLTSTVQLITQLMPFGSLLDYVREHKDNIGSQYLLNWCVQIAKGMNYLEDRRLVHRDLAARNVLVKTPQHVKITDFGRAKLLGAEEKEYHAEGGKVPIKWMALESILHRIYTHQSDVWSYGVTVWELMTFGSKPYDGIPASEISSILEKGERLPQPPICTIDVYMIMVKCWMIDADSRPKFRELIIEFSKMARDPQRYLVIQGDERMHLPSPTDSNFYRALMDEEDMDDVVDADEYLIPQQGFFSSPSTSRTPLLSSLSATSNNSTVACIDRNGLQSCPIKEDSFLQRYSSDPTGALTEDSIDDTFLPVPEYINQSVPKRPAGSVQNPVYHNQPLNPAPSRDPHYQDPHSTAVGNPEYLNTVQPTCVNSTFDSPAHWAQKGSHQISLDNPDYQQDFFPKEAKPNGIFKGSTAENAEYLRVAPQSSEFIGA

A word on the IC50: it is the concentration that gives 50% inhibition. On to `CCN1CCN(c2ccc3nc4n(c3c2)C[C@H](C)CCCOc2c(cnn2C)-c2cc(cn(C)c2=O)C(=O)N4)CC1` [Example A49], for which the GI50 in [1] (setting [13]) was found to be 251 nM; in test [4] (Homo sapiens, PC-9, 72 h) it was 12 nM; in test [8] (setting [14]), 2 nM; in test [8] (setting [15]), 12 nM; in test [8] (setting [16]), 5.7 nM; in [8] (setting [17]), 7 nM. Moreover, the GI50 in test [8] (setting [18]) worked out at 5.3 nM; in test [8] (setting [19]), 72 nM; in test [8] (setting [20]), 18 nM. Further, the IC50 in [2] was 16 nM; in test [3] it was 5.5 nM; in test [5] it was 694 nM; in test [6] it was 6 nM; in test [7], 2.8 nM; in test [9], 8.1 nM. In addition, the IC50 in test [10] was 45 nM; in [11], 5.1 nM; in test [12], 4.9 nM.

Take `CCn1ncc2c1OCCC[C@@H](C)Cn1c(nc3ccc(N4CCN(C)CC4)cc31)NC(=O)c1cc-2c(=O)n(C)c1` [Example A21, (11R)-5-ethyl-11,26-dimethyl-16-(4-methylpiperazin-1-yl)-7-oxa-4,5,13,20,22,26-hexaazapentacyclo[22.3.1.0^{2,6}.0^{13,21}.0^{14,19}]octacosa-1(28),2(6),3,14,16,18,20,24-octaene-23,27-dione]: the GI50 in test [1] (setting [13]) turned out to be 1110 nM; in test [4] (Homo sapiens, PC-9, 72 h) it was 24 nM; in test [8] (setting [14]) it was 2.1 nM; in test [8] (setting [15]), 22 nM; in test [8] (setting [16]) it was 19 nM; in test [8] (setting [17]), 26 nM. Besides, the GI50 in test [8] (setting [18]) is 7.2 nM; in test [8] (setting [19]) it was 6.7 nM; in [8] (setting [20]), 24 nM. Besides, the IC50 in [2] was 15 nM; in test [3] it was 4.6 nM; in test [5], 446 nM; in [6], 7.3 nM; in test [7] it was 3.7 nM; in test [9], 18 nM. Also, the values for the IC50 in test [10], in [11] and in [12] were 37 nM, 7.2 nM and 7.1 nM, respectively.

For the compound `CN1CCC2(CCN(c3ccc4nc5n(c4c3)C34CCC(CN(CCOc6c(cnn6C)-c6cc(cn(C)c6=O)C(=O)N5)C3)C4)C2)C1` (single isomer, unassigned) [Example A81B], the GI50 in test [1] (A-431 cells) was 667 nM; in test [4], 6.9 nM; in test [8] (setting [21]) it was 0.7 nM; in test [8] (setting [22]), 2.8 nM; in test [8] (setting [23]) it was 2.6 nM; in test [8] (setting [24]), 2.7 nM. Also, the values for the GI50 in [8] (setting [25]), in test [8] (setting [26]) and in test [8] (setting [27]) were 11 nM, 12 nM and 1.9 nM, respectively. Moreover, the IC50 stood at 3.1 nM in test [2]; 1.8 nM in [3]; 6.6 nM in test [5]; 2.8 nM in [6]; 1.7 nM in [7]; 2.3 nM in [9]. The half-maximal inhibitory concentration (IC50) was determined as 3.2 nM in [10], 2.3 nM in test [11] and 2.3 nM in [12].

Consider `Cn1ncc2c1OCCN1CC3CCC(C3)(C1)n1c(nc3ccc(N4CCC(N5CCOCC5)C4)cc31)NC(=O)c1cc-2c(=O)n(C)c1` (single isomer, unassigned) [Example A104B], for which the GI50 came to 1010 nM in test [1] (A-431 cells); 21 nM in test [4]; 0.74 nM in [8] (setting [21]); 6.8 nM in test [8] (setting [22]); 12 nM in test [8] (setting [23]); 8.2 nM in test [8] (setting [24]). Also, the GI50 in test [8] (setting [25]) stood at 12 nM; in test [8] (setting [26]), 19 nM; in test [8] (setting [27]), 6.9 nM. In addition, the IC50 worked out at 33 nM in test [2]; 6.1 nM in test [3]; 937 nM in test [5]; 8.5 nM in [6]; 4.5 nM in [7]; 13 nM in [9]. The IC50 in [10] came out at 53 nM; in [11], 6.6 nM; in [12], 5.9 nM.

For `C[C@@H]1CCCOc2c(cnn2C)-c2cc(cn(C)c2=O)C(=O)Nc2nc3ccc(N(C)CCN(C)C)cc3n2C1` [Example A36], the GI50 in test [1] (setting [13]) was 591 nM; in test [4] (Homo sapiens, PC-9, 72 h), 14 nM; in test [8] (setting [14]), 2.1 nM; in [8] (setting [15]), 6 nM; in test [8] (setting [16]) it was 5.1 nM; in test [8] (setting [17]), 5.9 nM. In addition, the results for the GI50 in test [8] (setting [18]), in test [8] (setting [19]) and in test [8] (setting [20]) were 4.7 nM, 23 nM and 7.8 nM, respectively. Besides, the half-inhibitory concentration (IC50) was 14 nM in test [2]; 3 nM in test [3]; 193 nM in test [5]; 2.5 nM in test [6]; 2.1 nM in [7]; 8 nM in [9]. Also, the IC50 in test [10] is 30 nM; in [11], 4.9 nM; in [12], 2.4 nM.

With `CC(C)N1CCN(c2ccc3nc4n(c3c2)C23CCC(CN(CCOc5c(cnn5C)-c5cc(cn(C)c5=O)C(=O)N4)C2)C3)CC1` (single isomer, unassigned) [Example A108A], the GI50 in [1] (A-431 cells) was determined as 1380 nM; in test [4], 320 nM; in [8] (setting [21]), 84 nM; in [8] (setting [22]), 204 nM; in test [8] (setting [23]), 202 nM; in [8] (setting [24]) it was 123 nM. Also, the GI50 worked out at 223 nM in test [8] (setting [25]), 369 nM in test [8] (setting [26]) and 227 nM in test [8] (setting [27]). Besides, the half-maximal inhibitory concentration (IC50) is 942 nM in test [2]; 293 nM in test [3]; over 5000 nM in test [5]; over 5000 nM in test [6]; 268 nM in test [7]; over 5000 nM in test [9]. The figures for the IC50 in test [10], in [11] and in [12] were 577 nM, over 5000 nM and 3170 nM, respectively.
